From US7666893B2, “Method for treatment of neurodegenerative disorders” (MedDEV Inc., priority 2006, dated 2010)

What was measured:
Assay type in all cases: in vivo, human
[1] = test system: multiple sclerosis (MS) patients; test: Treatment of multiple sclerosis patients via transdermal patch; settings: Example Three, four MS patients (2 female, 2 male), 0.2 mcg transdermal patch one day, two days off, repeated
[2] = test system: multiple sclerosis (MS) patients; test: as above; settings: for outcome on MS symptoms with cyclic dosing schedule: repeated
Text: (§1) Accordingly, material suitable for transdermal application can be prepared using a 1:1000 dilution of methyl 4-imidazolecarboxylate CAS number 17325-26-7, available from Sigma-Aldrich Corporation), combined with a pluronic lecithin organogel transdermal penetration enhancing vehicle, with hydrochloric acid being added to maintain the pH of the solution that or below 3. The resultant mixture may be dried and deposited on or applied to a suitable adhesive backing to form a transdermal patch, covered with quick release paper or other layer for protection prior to use.
The following illustrative examples relate to actual practice of the invention described above in the treatment of multiple sclerosis.
A person who had been suffering from multiple sclerosis (MS) for 51 years was treated in accordance with the method of the present invention. The patient suffered from debilitating intention tremors in their hands, poor balance, garbled speech, right foot tingling and right leg weakness, left foot tingling and weakness. Within 60 minutes of applying the first dose of 0.125 mcg methyl 4-imidazolecarboxylate via transdermal patch application, the intention tremors were alleviated, but noted some waxing and waning of other symptoms throughout the first day of treatment. […] After the third consecutive day of treatment, the patient had no symptoms of MS and they were able to remain free of symptoms for the next 36 hours without applying the treatment of the present invention. After 36 hours of not administering the treatment, they reported that their MS symptoms were returning, they then applied 0.125 mcg methyl 4-imidazolecarboxylate via transdermal patch and their MS symptoms were alleviated within 30 minutes of applying the treatment. They administered 0.125 mcg methyl 4-imidazolecarboxylate per day for next 2 consecutive days and was again able to remain free of all of the MS symptoms while wearing the transdermal patch containing the treatment dose and then remained free of symptoms for the following 2 days not administering the treatment.
A person who has been suffering from multiple sclerosis (MS) for 21 years was treated in accordance with the method of the present invention. The patient suffered from left foot tingling and numbness, left hand tingling and numbness, left leg weakness, slurred speech, cognitive impairment, fatigue, facial/jaw pain, and heaviness in limbs. […] The patient remained free of all MS symptoms with the administration of 0.15 mcg methyl 4-imidazolecarboxylate per day for the next two consecutive days. The patient was able to remain free of MS symptoms for 36 hours following the two consecutive days of application of present invention without use of treatment. After 36 hours of not using the present invention treatment, the patient experienced left foot tingling. The patient then applied 0.15 mcg methyl 4-imidazolecarboxylate per day via transdermal patch for two consecutive days and all MS symptoms alleviated. The patient was able to remain free of all MS symptoms for the next 4 days without applying the present invention treatment. […] The following 5 days the patient remained free of all MS symptoms without administering treatment of present invention.
Each patient has continued to maintain such improvements in their symptoms of MS by applying 0.2 mcg methyl 4-imidazolecarboxylate via transdermal patch for one day followed by two consecutive days without administering treatment and then repeating such dosing schedule.

[3] = test system: male MS patients with erectile dysfunction; test: Sexual function in male MS patients with erectile dysfunction; settings: Example Six
Text: Two male MS patients, a person and a person, experienced decreased libido, decreased penile sensation, and erectile dysfunction. […] These improvements in sexual function have persisted while continuing on the treatment. […] Their ability to achieve a full erection numerous times following repeated ejaculations was restored the same day that they resumed the treatment.

patients = test: Transdermal dosage range and regimen observations in patients
Experimental: As will be described in the following examples, dosages in the range from about 0.1 mcg to about 0.2 mcg per day have been found generally preferable, with some variation on a patient by patient basis. […] While the mechanism behind this is not fully understood, it is believed that the effectiveness of the periodic regimen, with a resting period of about 48 hours between applications, may be due to an associated half life period (within the body of the patient) of the material or an agent that is produced by the material.

[4] = test system: patient with major clinical depression; test: Treatment of patient with major clinical depression via transdermal patch; settings: Example Seven
Experimental: A person with a family history of depression and has a personal history of major clinical depression. Hospitalized in 1975 and again in 1990 with major episodes of depression including extreme suicidal ideations. Numerous medications were tried to help stabilize their condition. Since 1990 they have been taking 25 mg to 75 mg of nortriptyline to manage their depression and reports having to increase the dose to has high as 100 mg during stressful life events.
The patient reported suffering from the following symptoms despite taking nortriptyline:
They also reported very vivid dreams and they were able to recall the details of their dreams easily. […] Their constipation and dry mouth have resolved as well. They also have reported that their hair is regaining its original pigment and that their eyebrows are coming in darker and thicker resembling their younger years.

fibromyalgia patient = test: Treatment of fibromyalgia patient via transdermal patch; settings: Example Five
Text: as §1
A person who has been suffering from fibromyalgia for 10 years was treated in accordance with the method of the present invention. […] The patient has reported only two incidences of increased fatigue, which lasted only one day per incidence, and these incidences were preceded by very stressful life events.

[5] = 0.2 mcg transdermal patch one day on, two days off

COC(=O)c1cnc[nH]1 [methyl 4-imidazolecarboxylate]
patient-reported change in MS symptoms (bladder function, fatigue, tingling and numbness, balance, cognition and memory, walking, sleep) [1]: improvement in their MS symptoms | MS symptoms by the second day of treatment ([2]; Example One, 0.125 mcg per day, transdermal patch): All MS symptoms were alleviated | time to alleviation of returned MS symptoms after re-applying treatment ([2]; Example One, 0.125 mcg transdermal patch after 36 hours without treatment): ≤ 30 min | outcome on MS symptoms with cyclic dosing schedule ([2]; Example One, 0.2 mcg one day followed by 2 consecutive days without treatment): successfully alleviated all of the MS symptoms | time to alleviation of intention tremors after first dose ([2]; Example One, MS patient, first dose 0.125 mcg, transdermal patch): ≤ 60 min | time free of symptoms not administering the treatment ([2]; Example One, after re-application and 2 further consecutive days of 0.125 mcg per day): 2 days | time free of symptoms without applying the treatment ([2]; Example One, after third consecutive day of 0.125 mcg treatment): 36 h | effect on returned left foot tingling after single application ([2]; Example Two, 0.15 mcg transdermal patch on fifth day without treatment): symptoms resolved immediately | outcome on MS symptoms with cyclic dosing schedule ([2]; Example Two, 0.2 mcg transdermal patch one day, 2 consecutive days without treatment): continued to remain free of all MS symptoms | time to alleviation of all MS symptoms after first dose ([2]; Example Two, MS patient, first dose 0.15 mcg, transdermal patch): ≤ 30 min | time free of all MS symptoms without applying treatment ([2]; Example Two, after second course of 0.15 mcg per day for two consecutive days): 4 days | time free of MS symptoms without use of treatment ([2]; Example Two, following first dose and two consecutive days of 0.15 mcg per day): 36 h | time free of all MS symptoms without administering treatment ([2]; Example Two, following single 0.15 mcg application): 5 days | effect of stopping the treatment for one week ([3]; patient, restored the same day treatment resumed): decrease in libido and inability in achieving a full erection | time to achieve a full erection after first ejaculation ([3]; two male MS patients, 0.2 mcg): 1 to 3 min | patient-reported sexual function within three days of first administration ([3]; two male MS patients, 0.2 mcg (entry two)): increased libido, full erections, increased penile sensation | effectiveness of periodic regimen (patients; approximately 0.2 mcg once every three days): especially effective for the majority of patients | adverse effect at high dosages (patients; transdermal, dosages above approximately 3.0 mcg per day): negative cognitive effects, in a form of mental haziness or sleepiness | effect observed at low dosages (patients; transdermal, dosages below about 0.01 mcg per day): negligible effect | symptoms of depression while continuing on the treatment [4, 5]: remained free of all symptoms of depression | patient-reported effect the first day of treatment ([4]; person, 0.2 mcg): increased energy | maintained outcome with cyclic dosing schedule (fibromyalgia patient; [5]): remained free of pain, and improved mental clarity | incidences of increased fatigue during treatment (fibromyalgia patient; each lasting one day, preceded by very stressful life events): two | patient-reported effect within hours of first dose (fibromyalgia patient; person with fibromyalgia, first dose 0.2 mcg): decreased pain, decreased fatigue and improved mental clarity

CNCCC=C1c2ccccc2CCc2ccccc21 [nortriptyline, reference compound]
patient-reported side effects ([4]; 25 mg to 75 mg (up to 100 mg) nortriptyline since 1990): dry mouth and constipation
